Reference: patent US10517952B2, “Nucleophile-triggered degradable materials and methods of making and using the same” (GEORGIA TECH RESEARCH CORPORATION, priority 2014, dated 2019)

Assays:
Type in all cases: physicochemical
[1] = Gelation of 4-PEG-SH with OND linkers, gelation time by inversion test
Procedure: PEG-OND hydrogels were prepared by mixing tetravalent thiol-terminated PEG (4-PEG-SH, Mw˜2,500 Da for each arm) at 3.5 weight percent and multivalent OND linkers at equimolar concentration of thiol and electrophile in phosphate buffer containing 7% DMSO by volume (FIG. 42). The reactions were mixed briefly and the gel was allowed to cure at temperature or 37° C. Gelation time was recorded as the point at which the sample no longer flowed upon inversion of the reaction vessel.
Trial gelations were performed by premixing a solution of linker 7a with four-armed thiol-terminated poly(ethylene glycol) (4-PEG-SH. Mn=10,000) in neutral water containing 17% DMSO by volume. The overall concentration of PEG macromer was varied from 0.4 wt % to 8.3 wt % while maintaining an equimolar ratio of thiol to electrophile. Under these conditions, no gels formed on standing at room temperature for five minutes.
Based on empirical observations made in these trials, subsequent gels were prepared at room temperature from 3.5 wt % 4-PEG-SH solutions in phosphate buffers containing 7% DMSO at equimolar concentrations of thiol and OND electrophile. Mixtures were mixed briefly with a vortex mixer, and the reaction vial was periodically tilted or inverted. Gelation time was recorded when the sample no longer flowed and was self-supporting. […] Gelation time at 37° C. was determined by pre-warming 4-PEG-SH macromer and OND stock solutions in a 37° C. water bath. Gel components were combined and mixed briefly by pipetting, and the sample was held in the water bath. Gelation time was determined by the inversion test, as described above.
The labeled protein solutions prepared as described in the previous section were diluted three-fold with pH 7.4 100 mM phosphate buffer and used to dissolve the 4-PEG-SH macromer at 3.76 wt %. This solution was used in an identical manner as pure 4-PEG-SH solution for the purpose of forming PEG-OND hydrogels (FIG. 45). All samples formed self-supporting hydrogels within 1 min after mixing, as determined by the inversion test.

[2] = Oscillatory rheology of PEG-OND hydrogels
Procedure: Oscillatory rheology was used to assess the viscoelastic properties of selected PEG-OND hydrogels. […] The truncated cone was then brought in contact with the bis-EONB/4-PEG-SH mixture before setting of the gel by positioning the tool at the measuring position. The sample was inspected for spillovers and trimmed as required. A preliminary preshearing step consisting of 30 seconds at 0.1% strain and ω=0.01 rad/s was performed to ensure good contact with the gel sample. The elastic (storage) and viscous (loss) moduli, G′ and G″, respectively, were then measured as a function of time for a constant strain of 1% and an angular frequency of 1 rad/sec. The ability to store energy is described by G′, while the amount of energy dissipated is related with G″. It was observed that the sample experienced a rapid transformation from an initial state in which G′ was not much larger than G″ to a state in which G′ was clearly predominant, as shown in FIG. 5; this is consistent with gelation. The observed transformation happened in the first few minutes after preparation, even when the hydrogel continued to rigidify for up to 2-3 hours.
The linear regime of this sample was determined by performing an oscillatory strain sweep at 37° C. The frequency sweep shown in the main text was thus performed in the linear region.
[…] In both experiments, G′>>G″.

[3] = Equilibrium swelling, gel fraction and Mc (Flory-Rehner) of PEG-OND hydrogels; details: for Mc (apparent molecular weight between elastic crosslinks): calculated with the Flory-Rehner equation from swelling results; for Gel Fraction: mass of dry residue post-swelling/input mass of OND and 4-PEG-SH; for Equilibrium Swelling Ratio: mass post-swelling/mass pre-swelling, deionized water, 4° C., 24 hours, n = 3 gels
Procedure: The swelling of the PEG-OND hydrogels in deionized water was measured at 4° C. to prevent significant fragmentation during the experiment. […] An independent experiment measuring soluble fraction thiol content yielded results complementing those obtained gravimetrically (Table S3, and related discussion below). With the knowledge that small molecules can readily permeate swollen PEG-OND hydrogels (see below), detecting and modifying residual thiols in gels prepared from divalent linkers 7a and 8 by swelling in the presence of a fluorogenic OND derivative was attempted (FIG. 15, and related discussion below).
200 μL gels were prepared in pH 7.4 100 mM phosphate buffered saline containing 7% DMSO with 3.5 wt % 4-PEG-SH and the corresponding bis-, tris-, and tetra-ONDs to provide a 1:1 thiol to electrophile ratio, and allowed to cure for 20 minutes at room temperature. The mass of the gels after curing was recorded (Meq) before suspending in 5.5 mL of water. The hydrogels were stored at 4° C. during swelling to prevent significant degradation of the network during the experiment. The increase in mass of the gels was monitored periodically by decanting and blotting the gel gently with a kimwipe to remove excess water before weighing. After 24 hours swelling, when swelling had stabilized, the mass of the gel was recorded (Meq). The equilibrium mass swelling ratio was then determined using the following relationship:
After weighing equilibrium-swelled gels to determine equilibrium mass swelling ratio, the gels were freeze-dried and the residual mass was weighed (Mres). It is expected that buffer salts present in the sample when it was formed were removed by the multiple changes of swelling solvent (pure water). The mass of the remaining residue was compared to the input mass (Min) of 4-PEG-SH macromer and OND-based linker. The ratio of the residual mass and the input mass provides the fraction of material by mass incorporated into the hydrogel network (gel fraction), as shown in the following equation: […]
The apparent molecular weight between elastically-productive crosslinks (Mc) was determined from equilibrium swelling data, collected as described in section VII.1 and applying a modified form of the Flory-Rehner equation for networks formed under dilute conditions:
[formula] where Mn is the number average molecular weight for the polymeric macromer (10,000 g/mol), v is the specific volume of the polymer ([…] for PEG) V1 is the molar volume of solvent used for swelling ([…] for water), χ is the polymer-interaction parameter (0.43 for PEG-H2O and assumed constant for the described experiments). V2, and V2, are the volume fraction of polymer in the equilibrium swollen gel and the relaxed gel after curing, respectively, and are calculated as follows:
[formula] where qw is the weight swelling ratio after equilibrium swelling, qF is the weight swelling ratio after curing, ρp is the density of the polymer (1.12 g/cm^3 for PEG), ρwater=ρcure solvent is the density of swelling solvent and solvent during gel formation (1.00 g/cm^3 for water). The weight swelling ratios qw and qF are determined from data gathered in equilibrium swelling experiments using the following relationships:
[formula] where ms is the mass of the gel after equilibrium swelling, mc is the mass of the gel after curing, and md is the mass of the dried gel, or input mass of polymer and crosslinkers.
Using the formulae above, masses of hydrogel samples recorded after equilibrium swelling, curing, and drying were applied to estimate the apparent molecular weight between crosslinks, which are summarized in Table 1 of the main text. The experimentally observed Mc values for gels formed using divalent OND linkers was lower than theoretical ideal value Mc,ideal. This can be explained by the fact that the Mc,ideal values calculated for these gels (entries 1-5 of Table S1) are greater than the entanglement molecular weight for polyethylene glycol (˜4,400 g/mol). […]

[4] = Calculation of hydrogel mesh size from equilibrium swelling data; details: equilibrium-swollen gels
Procedure: Using the calculated molecular weight between crosslinks, Mc, and the method previously described by Canal and Peppas, the hydrogel mesh size was calculated. First, the root-mean-square end-to-end distance of the polymer chains in the network, (r0^2)^1/2, was calculated as follows: (r0^2)^1/2=lCn^1/2n^1/2 (Equation S10) where l is the average bond length in the polymer (0.146 nm for PEG) and Cn is the characteristic ratio of the polymer (4.0 for PEG). The average number of bonds between crosslinks, n is calculated using the following equation:
[formula] where Mc is the average molecular weight between crosslinks, calculated as described in the previous section, and Mr is the molecular weight of the repeating unit for the PEG macromer (44 g/mol). Finally, the mesh size, ξ, is calculated using the following relationship: ξ=v2,s^−1/3(r0^2)^1/2 (Equation S12) where v2, is the partial volume of polymer in the equilibrium swollen hydrogel, and is calculated using the experimentally determined equilibrium weight swelling ratios.

[5] = Erosion of swollen hydrogels (BODIPY erosion probe, time-lapse photography); details: 37° C., erosion probe
Source text: Degradation behavior of PEG-OND hydrogels under swelling conditions was investigated by labeling 3% of the 4-PEG-SH thiols with a BODIPY fluorophore via maleimide coupling before gelation. Gels prepared from this material are expected to have slightly lower crosslink densities and to degrade sooner when compared to gels formed without the erosion probe (FIG. 19). However, the probe-labeled macromer allowed convenient monitoring and comparison of erosion behavior under conditions relevant for biological applications. An increase in absorbance (504 nm) of the swelling buffer was observed as pieces containing the labeled PEG-thiol components were detached from the gel by rDA fragmentation (FIG. 2). […] Using combinations of linkers, it was possible to produce hydrogels with release profiles tuned between those of gels prepared from a single linker (FIG. 2C).
The 3.76 wt % solution of BODIPY-labeled 4-PEG-SH prepared above was used to form hydrogels using a method identical to unlabeled gels. Briefly, BODIPY-labeled 4-PEG-SH was combined with DMSO stocks of multivalent ONDs at equimolar concentration of thiol and electrophile. […] The absorbance of the supernatant at 504 nm was measured immediately to obtain a baseline measurement (t=0 hours), and the samples were placed into a 37° C. incubator. The absorbance of the swelling supernatant was monitored periodically by removal of 1 mL of buffer into a cuvette and measuring absorbance of the sample at 504 nm. […] This process was repeated for each sample until gel degradation was complete and the absorbance at 504 nm stabilized (100% dye released). In order to estimate the fraction of dye released from the non-degradable gel formed with bi s-EONB 8, a mock endpoint sample consisting of BODIPY-labeled 4-PEG-SH diluted to 3.5 wt % was prepared, and the absorbance at 504 nm was measured. […] The absorbance values collected over the course of the experiment were divided by the absorbance value measured after gel disintegration to obtain fractional dye release versus time. […]
The time at which the glass bead reached the bottom of the tube was recorded. […]

Structure (SMILES)	Gelation time ([1]; buffer pH 8.0, room temperature)	Gel formation ([1]; pH 6.5-7.4)	Gel formation ([1]; pH 7.4)	Gel stability ([2]; gel formed at pH 8.0, 4° C.)	Time to revert to the liquid state (crossover of G′ and G″) ([2]; gel formed at pH 8.0, room temperature)	Storage modulus G′ versus loss modulus G″ ([2]; pH 8.0, 4° C., strain and frequency sweeps)	Mc (apparent molecular weight between elastic crosslinks) [3]	Gel Fraction [3]	Equilibrium Swelling Ratio [3]	Calculated mesh size [4]	Gel stability under swelling conditions compared with gels from divalent ONDs [5]
COC(=O)C1=C(C(=O)OC)C2(CNC(=O)CCCC(=O)NCC34C=CC(C)(O3)C(C(=O)OC)=C4C(=O)OC)C=CC1(C)O2 [Linker 7c, Tetramethyl 4,4′-((glutaroylbis(azanediyl))bis(methylene))bis(1-methyl-7-oxabicy-clo[2.2.1]hepta-2,5-diene-2,3-dicarboxylate)]	≤ 1.5 min	formed only viscous solutions	did not form self-supporting gels	fairly stable	≤ 30 min	G′>>G″	–	–	–	–	–
COC(=O)C1=C(C(=O)OC)C2(CNC(=O)CC(O)(CC(=O)NCC34C=CC(O3)C(C(=O)OC)=C4C(=O)OC)C(=O)NCC34C=CC(O3)C(C(=O)OC)=C4C(=O)OC)C=CC1O2 (stereo not shown) [Linker 11, Tetramethyl 1,1′-(((2-(2-(((2,3-bis(methoxycarbonyl)-7-oxabicyclo[2.2.1]hepta-2,5-dien-1-yl)methyl)amino)-2-oxoethyl)-2-hydroxysuccinyl)bis(azanediyl))bis (methylene))bis(7′-oxabicyclo[2.2.1]hepta-2,5-diene-2,3-dicarboxylate)]	–	–	–	–	–	–	3846 ± 102 g/mol	0.98 ± 0.08	1.54 ± 0.07	13.7 ± 1.3 nm	more stable gels
COC(=O)C1=C(C(=O)OC)C2(CNC(=O)CCOCC(COCCC(=O)NCC34C=CC(O3)C(C(=O)OC)=C4C(=O)OC)(COCCC(=O)NCC34C=CC(O3)C(C(=O)OC)=C4C(=O)OC)COCCC(=O)NCC34C=CC(O3)C(C(=O)OC)=C4C(=O)OC)C=CC1O2 (stereo not shown) [Linker 12, Tetramethyl 1,1′-(8,8-bis((3-(((2,3-bis(methoxycarbonyl)-7-oxabicyclo[2.2.1]hepta-2,5-dien-1-yl)methyl)amino)-3-oxopropoxy)methyl)-3,13-dioxo-6,10-dioxa-2,14-diazapentadecane-1,15-diyl)bis(7-oxabicyclo[2.2.1]hepta-2,5-diene-2,3-dicarboxylate)]	–	–	–	–	–	–	3740 ± 95 g/mol	0.96 ± 0.05	1.44 ± 0.08	13.3 ± 0.9 nm	more stable gels
